The values below come from paper PMC3417242 (Journal of medicinal chemistry, 2012).

Broadly, the Ki is a measure of affinity in units of concentration, obtained from inhibition or displacement. As a reminder, the IC50 is the concentration that gives 50% inhibition.

Read-outs that look alike come from different tables or passages of the source. Some results are limits rather than exact numbers.

Data set [1] concerns the target T1, Bcl-2 (Homo sapiens, UniProt P10415). The data set can be described thus: Fluorescence polarization-based. The settings on record: for times less potent than 12 in binding to Bcl-2: compared with compound 12. Format: binding. For orientation: In fluorescence polarisation assays a small probe gives low polarisation when free and higher when bound to something large.

The subject of data set [2] is H146 cell line. The data set can be described thus: Western blotting of caspase-3 and PARP cleavage in cells. Format: cell-based, Human. The settings on record: 24 h.
The test system of data set [3] is H146, H1417 and H1963 cancer cell lines. Format: cell-based, Human.
In data set [4] the test system is H146 cell line. As to the kind of experiment: Cell death induction by trypan blue assay. The format is cell-based, Human. To be noted: 24 h.
A further data set relates to SCID mice. As to the kind of experiment: Toxicity in SCID mice. The format is in vivo. To be noted: 25 mg/kg, daily intravenous dosing, five days a week for 2 weeks.
The test system of a further data set is H146 cancer cells. As to the kind of experiment: Release of cytochrome C from mitochondria in cells. Format: cell-based, Human. The settings on record: for Release of cytochrome C and cleavage of PARP at 30 nM: 2 h, H146 cells; for Release of cytochrome C from mitochondria in H146 cells: treatment as short as 2 h.
In data set [5] the target is T2, Bcl-xL (Homo sapiens, UniProt Q07817). The settings on record: read-out: Ki, binding to Bcl-xL; previously reported; cited from earlier work.
Data set [6] relates to H146 xenograft tumor tissues. As to the kind of experiment: In vivo pharmacodynamic. More on the design: species or system SCID mice. To be noted: at its maximum tolerated dose (data not shown).
Data set [7] has as its target T2, Bcl-xL. As to the kind of experiment: Fluorescence polarization-based. The format is binding.
In data set [8] the test system is H1417 small-cell lung cancer cell line. As to the kind of experiment: Cell growth inhibition, H1417. Format: cell-based, Human.
The subject of data set [9] is H146 small-cell lung cancer cell line. As to the kind of experiment: Cell growth inhibition, H146. Format: cell-based, Human.
Another data set relates to H146 xenograft model. As to the kind of experiment: In vivo efficacy study, H146 xenograft model. To be noted: 25 mg/kg daily i.v. 5 days a week for 2 weeks.
The target in data set [10] is T1, Bcl-2. The data set can be described thus: Cell-free mitochondrial functional assay, Bcl-2. To be noted: compared with compound 1.
Data set [11] has as its system H1963 small-cell lung cancer cell line. As to the kind of experiment: Cell growth inhibition, H1963. Format: cell-based. To be noted: read-out: Cell Growth Inhibition (IC50 ± SD) H1963.

T2 sequence (Q07817 whole entry): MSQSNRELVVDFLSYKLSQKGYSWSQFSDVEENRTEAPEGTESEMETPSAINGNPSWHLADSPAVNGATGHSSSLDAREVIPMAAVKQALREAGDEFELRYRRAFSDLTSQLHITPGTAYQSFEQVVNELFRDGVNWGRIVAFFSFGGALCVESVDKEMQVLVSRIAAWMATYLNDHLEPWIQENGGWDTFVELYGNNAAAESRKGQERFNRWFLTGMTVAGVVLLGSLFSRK
T1 sequence (P10415 whole entry): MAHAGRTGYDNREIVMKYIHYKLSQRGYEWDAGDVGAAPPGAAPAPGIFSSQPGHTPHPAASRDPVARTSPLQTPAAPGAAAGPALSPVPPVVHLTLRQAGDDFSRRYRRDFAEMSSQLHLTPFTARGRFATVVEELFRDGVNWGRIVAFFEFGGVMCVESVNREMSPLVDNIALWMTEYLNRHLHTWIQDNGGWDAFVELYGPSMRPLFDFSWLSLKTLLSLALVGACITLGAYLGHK

Consider `Cc1cc(-c2cccc(N3CCN(c4ccc(NS(=O)(=O)c5ccc(N[C@H](CCN(C)C)CSc6ccccc6)c([N+](=O)[O-])c5)cc4)CC3)c2)c(-c2ccc(Cl)cc2)n1C` [Compound 13, (R)-N-(4-(4-(3-(2-(4-Chlorophenyl)-1,5-dimethyl-1H-pyrrol-3-yl)phenyl)piperazin-1-yl)phenyl)-4-((4-(dimethylamino)-1-(phenylthio)butan-2-yl)amino)-3-nitrobenzenesulfonamide], for which the “times less potent than 12 in binding to Bcl-2” value on Bcl-2 [1] worked out at 100 times.

Turning to `Cc1c(C(=O)O)c(-c2cccc(N3CCN(c4ccc(NS(=O)(=O)c5ccc(N[C@H](CCN(C)C)CSc6ccccc6)c([N+](=O)[O-])c5)cc4)CC3)c2)c(-c2ccc(Cl)cc2)n1C` [Compound 12, (R)-5-(4-Chlorophenyl)-4-(3-(4-(4-(4-((4-(dimethylamino)-1-(phenylthio)butan-2-yl)amino)-3-nitrophenylsulfonamido)phenyl)piperazin-1-yl)phenyl)-1,2-dimethyl-1H-pyrrole-3-carboxylic acid], the “Cleavage of caspase-3 and PARP in H146” value in the data set on H146 cell line [2] was “induce cleavage of caspase-3 and poly (ADP- ribose) polymerase (PARP) in a dose-dependent manner”. The “times more potent than compound 10 in cell growth inhibition” value in data set [3] is 2–4 times. Moreover, in the data set on H146 cell line [4], the “Cell death induction in H146” value was “effectively induce cell death in H146 in a dose-dependent manner”.

`Cc1c(C(=O)O)c(-c2cccc(N3CCN(c4ccc(NS(=O)(=O)c5ccc(N[C@H](CCN(C)C)CSc6ccccc6)c([N+](=O)[O-])c5)cc4)CC3)c2)c(-c2ccc(Cl)cc2)n1C(C)C` [Compound 15, (R)-5-(4-Chlorophenyl)-4-(3-(4-(4-(4-((4-(dimethylamino)-1-(phenylthio)butan-2-yl)amino)-3-nitrophenylsulfonamido)phenyl)piperazin-1-yl)phenyl)-1-isopropyl-2-methyl-1H-pyrrole-3-carboxylic acid]: the “Cleavage of caspase-3 and PARP in H146” value in the data set on H146 cell line [2] is “induce cleavage of caspase-3 and poly (ADP- ribose) polymerase (PARP) in a dose-dependent manner”. In addition, the “Tolerability in SCID mice” value in the data set on SCID mice is recorded as “toxic to the animals which had severe weight loss”. Also, the “times more potent than compound 1 in cell growth inhibition” value in data set [3] (direct comparison) is on record as 10–100 times. Also, in the data set with H146 cell line [4], the “Cell death induction in H146 at 10 nM” value is given as “induce robust cell death” and the “Cell death induction in H146” value was “effectively induce cell death in H146 in a dose-dependent manner”. In addition, in the data set with H146 cancer cells, the “Release of cytochrome C and cleavage of PARP at 30 nM” value was “robust”; the “Release of cytochrome C from mitochondria in H146 cells” value is given as “induces a release of cytochrome C in a dose-dependent manner”.

In the case of `CCc1c(-c2ccc(Cl)cc2)c(-c2cccc(N3CCN(c4ccc(NS(=O)(=O)c5ccc(N[C@H](CCN(C)C)CSc6ccccc6)c([N+](=O)[O-])c5)cc4)CC3)c2)c(C(=O)O)n1C` [Compound 6], the Ki on Bcl-xL [5] was less than 0.001 µM; at Bcl-xL [7] (read-out: Binding Affinities Bcl-xL Ki ± SD, FP competitive binding), less than 0.001 µM. Further, in data set [6], the “Apoptosis induction in H146 xenograft tumor tissues” value is listed as “fails to induce robust apoptosis”.

With `CN1CCN(CCCNC(=O)c2c(-c3ccccc3)c(-c3ccc(Cl)cc3)cn2CC[C@H](O)CO)CC1` [Compound 7, reference compound], the half-inhibitory concentration (IC50) in [8] (Homo sapiens, NCI-H1417, read-out: Cell Growth Inhibition (IC50 ± SD) H1417) is greater than 10 µM; in [9] (Homo sapiens, NCI-H146, read-out: Cell Growth Inhibition (IC50 ± SD) H146) it was greater than 10 µM.

On to `CCn1c(C)c(C(=O)O)c(-c2cccc(N3CCN(c4ccc(NS(=O)(=O)c5ccc(N[C@H](CCN(C)C)CSc6ccccc6)c([N+](=O)[O-])c5)cc4)CC3)c2)c1-c1ccc(Cl)cc1` [Compound 14, (R)-5-(4-Chlorophenyl)-4-(3-(4-(4-(4-((4-(dimethylamino)-1-(phenylthio)butan-2-yl)amino)-3-nitrophenylsulfonamido)phenyl)piperazin-1-yl)phenyl)-1-ethyl-2-methyl-1H-pyrrole-3-carboxylic acid], for which the “Cleavage of caspase-3 and PARP in H146” value in the data set on H146 cell line [2] was “induce cleavage of caspase-3 and poly (ADP- ribose) polymerase (PARP) in a dose-dependent manner”. Further, in the data set with H146 xenograft model, the “Inhibition of tumor growth” value is given as “very effective in inhibition of tumor growth”, the “Maximum weight loss during the treatment” value is less than 10%, the “Other signs of toxicity” value is given as “no other signs of toxicity observed” and the “Tumor regression during the treatment phase” value is reported as “capable of achieving tumor regression”. Also, in the data set on SCID mice, the “Tolerability in SCID mice” value is “well tolerated”. Besides, in the data set with H146 cell line [4], the “Cell death induction in H146 at 10 nM” value is listed as “induce robust cell death” and the “Cell death induction in H146” value was “effectively induce cell death in H146 in a dose-dependent manner”. In the data set on H146 cancer cells, the “Release of cytochrome C and cleavage of PARP at 30 nM” value was “robust”; the “Release of cytochrome C from mitochondria in H146 cells” value was “induces a release of cytochrome C in a dose-dependent manner”.

On to `CN(C)CC[C@H](CSc1ccccc1)Nc1ccc(S(=O)(=O)NC(=O)c2ccc(N3CCN(Cc4ccccc4-c4ccc(Cl)cc4)CC3)cc2)cc1[N+](=O)[O-]` [Compound 1, reference compound], for which the “Cleavage of caspase-3 and PARP in H146” value with H146 cell line [2] was “induce cleavage of caspase-3 and poly (ADP- ribose) polymerase (PARP) in a dose-dependent manner”. In addition, in the data set with H146 cell line [4], the “Cell death induction in H146” value is “effectively induce cell death in H146 in a dose-dependent manner”.

As to `CNC(=O)c1c(-c2cccc(N3CCN(c4ccc(NS(=O)(=O)c5ccc(N[C@H](CCN(C)C)CSc6ccccc6)c([N+](=O)[O-])c5)cc4)CC3)c2)c(-c2ccc(Cl)cc2)n(C)c1C` [Compound 11, (R)-5-(4-Chlorophenyl)-4-(3-(4-(4-(4-((4-(dimethylamino)-1-(phenylthio)butan-2-yl)amino)-3-nitrophenylsulfonamido)phenyl)piperazin-1-yl)phenyl)-N,1,2-trimethyl-1H-pyrrole-3-carboxamide], in data set [3], the “times more potent than compound 10 in cell growth inhibition” value is given as 2–4 times.

As to `Cc1c(C(=O)NCCCN2CCN(C)CC2)c(-c2cccc(N3CCN(c4ccc(NS(=O)(=O)c5ccc(N[C@H](CCN(C)C)CSc6ccccc6)c([N+](=O)[O-])c5)cc4)CC3)c2)c(-c2ccc(Cl)cc2)n1C` [Compound 10, (R)-5-(4-Chlorophenyl)-4-(3-(4-(4-(4-((4-(dimethylamino)-1-(phenylthio)butan-2-yl)amino)-3-nitrophenylsulfonamido)phenyl)piperazin-1-yl)phenyl)-1,2-dimethyl-N-(3-(4-methylpiperazin-1-yl)propyl)-1H-pyrrole-3-carboxamide], the “times less potent than 1 in the Bcl-2 functional assay” value on Bcl-2 [10] was 3 times.

In the case of “(R)-5-(4-Chlorophenyl)-4-(3-(4-(4-(((4-((4-(dimethylamino)-1-(phenylthio)butan-2-yl)amino)phenyl)sulfonyl)carbamoyl)phenyl)piperazin-1-yl)phenyl)-1,2-dimethyl-N-(3-(4-methylpiperazin-1-yl)propyl)-1H-pyrrole-3-carboxamide [Compound 9]”, the IC50 in data set [8] (read-out: Cell Growth Inhibition (IC50 ± SD) H1417, H1417) was greater than 10 µM; in [11], greater than 10 µM; in data set [9] (read-out: Cell Growth Inhibition (IC50 ± SD) H146, H146) it was greater than 10 µM.

`Cc1c(C(=O)NCCCN2CCN(C)CC2)c(-c2ccccc2)c(-c2ccc(Cl)cc2)n1C` [Compound 8, 5-(4-Chlorophenyl)-1,2-dimethyl-N-(3-(4-methylpiperazin-1-yl)propyl)-4-phenyl-1H-pyrrole-3-carboxamide]: at Bcl-2 [1] (Ki compared with compound 7), the “times more potent than 7 in binding to Bcl-2” value stood at 2 times. Besides, the “times more potent than 7 in binding to Bcl-xL” value at Bcl-xL [7] (Ki compared with compound 7) is reported as 2 times. Moreover, the “Cellular activity (cell growth inhibition)” value in data set [3] is reported as “minimal cellular activity”.

Turning to `Cc1c(C(=O)O)c(-c2cccc(N3CCN(c4ccc(NS(=O)(=O)c5ccc(N[C@H](CCN(C)C)CSc6ccccc6)c([N+](=O)[O-])c5)cc4)CC3)c2)c(-c2ccc(Cl)cc2)n1C1CC1` [Compound 16, (R)-5-(4-Chlorophenyl)-1-cyclopropyl-4-(3-(4-(4-(4-((4-(dimethylamino)-1-(phenylthio)-butan-2-yl)amino)-3-nitrophenylsulfonamido)phenyl)piperazin-1-yl)phenyl)-2-methyl-1H-pyrrole-3-carboxylic acid], at Bcl-2 [1], the “times less potent than 12 in binding to Bcl-2” value came out at 10 times.
